The results in this text go back to patent publication US10617621B2, “Antimicrobial composition” (Conopco, Inc., priority 2016, dated 2020).

This assay concerns Malassezia furfur. Briefly: ΣFIC assay against Malassezia furfur (checkerboard in-vitro susceptibility testing, alamar blue). Type of assay: cell-based, M. furfur (CBS 1878). The method, then:
A brief description of the method is given below.
Methods: ΣFIC Assay Against Malassezia furfur
They are then incubated at 32° C. for 48 hrs with shaking. Then, 1 ml of the first broth culture is transferred into 9 ml of fresh PB and incubated at 32° C. for 48 hrs with shaking. The final culture should contain 2 to 6×10^6 cells/ml. This is achieved by diluting using PB to 5*10^6 cell/ml.
The piperazine compound was serially diluted (2-fold) to prepare in a range of 10-10,000 ppm in growth medium.
Binary combinations of ZPTO and the testing compound were prepared in 96-well plate by mixing 20 μl of zinc pyrithione solution with 20 μl of testing compound. The solution in each well were further mixed with 160 μl of PB and 20 μl of M. furfur. The final cell density in the testing plate is around 5*10^4 cell/ml, and the final concentration of actives in each well of the 96-well plate were shown below.
The plate was incubated at 32° C. for one day. Then 20 μl of alamar blue (0.01%) was added into each well with a further incubation for one day to observe the color change. Red color indicates microbial growth and the non-changing blue color indicates no growth.
The MIC is defined as the absolute lowest concentration of active that provides complete microbial growth inhibition as indicated by the blue color of alamar blue under the tested condition.
The differing behaviours of inhibitory antimicrobials in isolation and mixtures have been widely explored using the concept of the Fractional Concentration (FC) and Fractional Inhibitory Concentration (FIC). The parameter can be defined as follows: […]
The interactions between antimicrobials can be additive, synergistic or antagonistic depending on whether the efficacy of the combination is equivalent to, greater than or less than that obtained for the same total concentration of the individual components when tested alone.
These relationships can be expressed mathematically by summing the fractional MIC values for all the components present in the mixture to give the “fractional inhibition index”. There is no consistent approach in the academic or patent literature in defining precise limiting ΣFIC values that differentiate synergy from additivity or antagonism. In this study, we have adopted a liberal approach defining any binary mixture with ΣFIC<0.9 as showing evidence of synergistic behavior.
ΣFIC=FIC (component 1)+FIC (component 2)
ΣFIC=1 corresponds to additive bactericidal activity
ΣFIC>1 corresponds to antagonistic bactericidal activity
ΣFIC<0.9 corresponds to synergistic bactericidal activity

[1] abbreviates: CBS1878, active alone, M. furfur CBS 1878 in Pityrosporum Broth, 32° C., complete growth inhibition by alamar blue, read-out: Minimum Inhibition Concentration (MIC).
[2] abbreviates: CBS1878, read-out: Minimum Inhibition Concentration (MIC).

Where a name gives a salt, the structure may show the parent alone. Read-outs that look alike come from different tables or passages of the source.

For `O=C(c1ccccc1F)N1CCN(C2CCC(c3ccccc3)CC2)CC1` (centres unmarked) [1-(2-fluorobenzoyl)-4-(4-phenylcylcohexyl)piperazine], the MIC under setting [1] stood at 100 µg/mL. `CCc1ccc(CN2CCN(Cc3cccc(Cl)c3)CC2)cc1` [1-(3-chlorobenzyl)-4-(4-ethylbenzyl)piperazine oxalate]: the MIC under setting [2] was above 1000 µg/mL.

As to `CCc1ccc(CN2CCN(C3CCC(C)CC3)CC2)cc1` (centres unmarked) [1-(4-ethylbenzyl)-4-(4-methylcyclohexyl)piperazine oxalate], the MIC under setting [2] was 125 µg/mL. As for `CC(C)C(=O)N1CCN(c2ccc(F)cc2)CC1` [1-(4-fluorophenyl)-4-isobutyrylpiperazine], the MIC under setting [1] was above 1000 µg/mL. On to `CC(C)C(=O)N1CCN(c2ccccc2)CC1` [1-isobutyryl-4-phenylpiperazine], for which, under setting [1], the MIC is above 1000 µg/mL.
